Tests used:
Conditions in all cases: Compound concentration 100.0 nM
[1] = biological target: Mitogen-activated protein kinase kinase kinase 7 (Homo sapiens) (UniProt O43318)
[2] = biological target: Serine/threonine-protein kinase LATS2 (Homo sapiens) (UniProt Q9NRM7)
[3] = biological target: Cyclin-dependent kinase 3 (Homo sapiens) (UniProt Q00526)
[4] = system: Epidermal growth factor receptor (Homo sapiens), P00533 [T790M]
[5] = system: Tyrosine-protein kinase ABL1 (Homo sapiens), P00519 [Q252H]
[6] = biological target: Interleukin-1 receptor-associated kinase 1 (Homo sapiens) (UniProt P51617)
[7] = biological target: Casein kinase I isoform alpha (Homo sapiens) (UniProt P48729)
[8] = biological target: Insulin receptor-related protein (Homo sapiens) (UniProt P14616)
[9] = biological target: RAC-beta serine/threonine-protein kinase (Homo sapiens) (UniProt P31751)
[10] = system: Mast/stem cell growth factor receptor Kit (Homo sapiens), P10721 [L576P]
[11] = biological target: Platelet-derived growth factor receptor alpha (Homo sapiens) (UniProt P16234)
[12] = biological target: Tyrosine-protein kinase CSK (Homo sapiens) (UniProt P41240)
[13] = biological target: Ribosomal protein S6 kinase alpha-6 (Homo sapiens) (UniProt Q9UK32)
[14] = biological target: Ankyrin repeat and protein kinase domain-containing protein 1 (Homo sapiens) (UniProt Q8NFD2)
[15] = biological target: Serine/threonine-protein kinase MRCK gamma (Homo sapiens) (UniProt Q6DT37)
[16] = biological target: Fibroblast growth factor receptor 4 (Homo sapiens) (UniProt P22455)
[17] = system: Receptor-type tyrosine-protein kinase FLT3 (Homo sapiens), P36888 [UNDEFINED MUTATION]
[18] = biological target: Cyclin-dependent kinase 4 (Homo sapiens) (UniProt P11802)
[19] = system: Mast/stem cell growth factor receptor Kit (Homo sapiens), P10721 [V559D,V654A]
[20] = biological target: Serine/threonine-protein kinase 38 (Homo sapiens) (UniProt Q15208)
[21] = biological target: Leucine-rich repeat serine/threonine-protein kinase 2 (Homo sapiens) (UniProt Q5S007)
[22] = biological target: Serine/threonine-protein kinase PLK3 (Homo sapiens) (UniProt Q9H4B4)
[23] = biological target: Hormonally up-regulated neu tumor-associated kinase (Homo sapiens) (UniProt P57058)
[24] = biological target: Mitogen-activated protein kinase kinase kinase 14 (Homo sapiens) (UniProt Q99558)
[25] = biological target: Cyclin-dependent kinase 16 (Homo sapiens) (UniProt Q00536)
[26] = biological target: MAP kinase-activated protein kinase 2 (Homo sapiens) (UniProt P49137)
[27] = biological target: STE20-like serine/threonine-protein kinase (Homo sapiens) (UniProt Q9H2G2)
[28] = biological target: Serine/threonine-protein kinase PAK 4 (Homo sapiens) (UniProt O96013)
[29] = system: Tyrosine-protein kinase ABL1 (Homo sapiens), P00519 [E255K]
[30] = biological target: Ribosomal protein S6 kinase alpha-3 (Homo sapiens) (UniProt P51812)
[31] = system: ALK tyrosine kinase receptor (Homo sapiens), Q9UM73 [C1156Y]
[32] = biological target: Serine/threonine-protein kinase TNNI3K (Homo sapiens) (UniProt Q59H18)
[33] = biological target: Serine/threonine-protein kinase ULK1 (Homo sapiens) (UniProt O75385)
[34] = biological target: Tyrosine-protein kinase JAK3 (Homo sapiens) (UniProt P52333)
[35] = biological target: Serine/threonine-protein kinase tousled-like 2 (Homo sapiens) (UniProt Q86UE8)
[36] = biological target: Serine/threonine-protein kinase Nek7 (Homo sapiens) (UniProt Q8TDX7)
[37] = system: Epidermal growth factor receptor (Homo sapiens), P00533 [UNDEFINED MUTATION]
[38] = biological target: Serine/threonine-protein kinase DCLK3 (Homo sapiens) (UniProt Q9C098)
[39] = biological target: Receptor-interacting serine/threonine-protein kinase 1 (Homo sapiens) (UniProt Q13546)
[40] = system: Tyrosine-protein kinase ABL1 (Homo sapiens), P00519 [M351T]
[41] = biological target: Serine/threonine-protein kinase DCLK1 (Homo sapiens) (UniProt O15075)
[42] = biological target: Calcium/calmodulin-dependent protein kinase type 1 (Homo sapiens) (UniProt Q14012)
[43] = biological target: Ephrin type-B receptor 2 (Homo sapiens) (UniProt P29323)
[44] = biological target: Serine/threonine-protein kinase MARK2 (Homo sapiens) (UniProt Q7KZI7)
[45] = biological target: Serine/threonine-protein kinase SBK1 (Homo sapiens) (UniProt Q52WX2)

Measured: residual activity

Chain of STE20-like serine/threonine-protein kinase (Homo sapiens) (Q9H2G2 whole entry, looked up): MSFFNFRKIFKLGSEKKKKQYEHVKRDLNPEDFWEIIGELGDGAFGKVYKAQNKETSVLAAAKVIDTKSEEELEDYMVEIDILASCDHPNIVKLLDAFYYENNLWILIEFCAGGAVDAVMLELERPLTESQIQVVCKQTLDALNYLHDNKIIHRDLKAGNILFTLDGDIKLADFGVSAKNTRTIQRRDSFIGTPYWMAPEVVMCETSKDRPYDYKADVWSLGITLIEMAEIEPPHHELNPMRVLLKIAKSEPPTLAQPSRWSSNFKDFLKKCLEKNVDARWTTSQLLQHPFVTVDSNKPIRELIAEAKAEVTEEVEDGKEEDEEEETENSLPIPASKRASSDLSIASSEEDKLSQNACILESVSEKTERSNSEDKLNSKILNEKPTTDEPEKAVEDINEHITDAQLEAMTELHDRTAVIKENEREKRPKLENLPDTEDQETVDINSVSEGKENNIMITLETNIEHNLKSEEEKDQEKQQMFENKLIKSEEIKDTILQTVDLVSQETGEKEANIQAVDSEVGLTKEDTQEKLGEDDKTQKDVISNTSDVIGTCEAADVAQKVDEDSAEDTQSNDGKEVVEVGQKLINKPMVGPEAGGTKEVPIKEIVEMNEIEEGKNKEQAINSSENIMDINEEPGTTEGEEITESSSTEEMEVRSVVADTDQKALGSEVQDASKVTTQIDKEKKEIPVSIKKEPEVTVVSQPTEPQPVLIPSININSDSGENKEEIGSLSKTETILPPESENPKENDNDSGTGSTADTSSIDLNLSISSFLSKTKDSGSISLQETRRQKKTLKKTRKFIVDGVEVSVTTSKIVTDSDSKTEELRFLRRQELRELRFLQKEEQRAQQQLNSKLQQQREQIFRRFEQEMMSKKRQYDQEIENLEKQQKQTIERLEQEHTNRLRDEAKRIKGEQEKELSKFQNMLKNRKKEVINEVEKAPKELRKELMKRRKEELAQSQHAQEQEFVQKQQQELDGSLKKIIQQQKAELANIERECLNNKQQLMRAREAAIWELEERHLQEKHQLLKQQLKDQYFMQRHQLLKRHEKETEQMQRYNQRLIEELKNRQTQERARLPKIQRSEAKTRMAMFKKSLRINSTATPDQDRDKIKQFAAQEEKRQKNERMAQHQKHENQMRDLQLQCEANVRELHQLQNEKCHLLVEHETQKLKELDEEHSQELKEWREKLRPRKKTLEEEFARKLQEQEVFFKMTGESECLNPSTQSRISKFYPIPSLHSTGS
Chain of ALK tyrosine kinase receptor (Homo sapiens), Q9UM73 [C1156Y] (Q9UM73 whole entry C1156Y, looked up): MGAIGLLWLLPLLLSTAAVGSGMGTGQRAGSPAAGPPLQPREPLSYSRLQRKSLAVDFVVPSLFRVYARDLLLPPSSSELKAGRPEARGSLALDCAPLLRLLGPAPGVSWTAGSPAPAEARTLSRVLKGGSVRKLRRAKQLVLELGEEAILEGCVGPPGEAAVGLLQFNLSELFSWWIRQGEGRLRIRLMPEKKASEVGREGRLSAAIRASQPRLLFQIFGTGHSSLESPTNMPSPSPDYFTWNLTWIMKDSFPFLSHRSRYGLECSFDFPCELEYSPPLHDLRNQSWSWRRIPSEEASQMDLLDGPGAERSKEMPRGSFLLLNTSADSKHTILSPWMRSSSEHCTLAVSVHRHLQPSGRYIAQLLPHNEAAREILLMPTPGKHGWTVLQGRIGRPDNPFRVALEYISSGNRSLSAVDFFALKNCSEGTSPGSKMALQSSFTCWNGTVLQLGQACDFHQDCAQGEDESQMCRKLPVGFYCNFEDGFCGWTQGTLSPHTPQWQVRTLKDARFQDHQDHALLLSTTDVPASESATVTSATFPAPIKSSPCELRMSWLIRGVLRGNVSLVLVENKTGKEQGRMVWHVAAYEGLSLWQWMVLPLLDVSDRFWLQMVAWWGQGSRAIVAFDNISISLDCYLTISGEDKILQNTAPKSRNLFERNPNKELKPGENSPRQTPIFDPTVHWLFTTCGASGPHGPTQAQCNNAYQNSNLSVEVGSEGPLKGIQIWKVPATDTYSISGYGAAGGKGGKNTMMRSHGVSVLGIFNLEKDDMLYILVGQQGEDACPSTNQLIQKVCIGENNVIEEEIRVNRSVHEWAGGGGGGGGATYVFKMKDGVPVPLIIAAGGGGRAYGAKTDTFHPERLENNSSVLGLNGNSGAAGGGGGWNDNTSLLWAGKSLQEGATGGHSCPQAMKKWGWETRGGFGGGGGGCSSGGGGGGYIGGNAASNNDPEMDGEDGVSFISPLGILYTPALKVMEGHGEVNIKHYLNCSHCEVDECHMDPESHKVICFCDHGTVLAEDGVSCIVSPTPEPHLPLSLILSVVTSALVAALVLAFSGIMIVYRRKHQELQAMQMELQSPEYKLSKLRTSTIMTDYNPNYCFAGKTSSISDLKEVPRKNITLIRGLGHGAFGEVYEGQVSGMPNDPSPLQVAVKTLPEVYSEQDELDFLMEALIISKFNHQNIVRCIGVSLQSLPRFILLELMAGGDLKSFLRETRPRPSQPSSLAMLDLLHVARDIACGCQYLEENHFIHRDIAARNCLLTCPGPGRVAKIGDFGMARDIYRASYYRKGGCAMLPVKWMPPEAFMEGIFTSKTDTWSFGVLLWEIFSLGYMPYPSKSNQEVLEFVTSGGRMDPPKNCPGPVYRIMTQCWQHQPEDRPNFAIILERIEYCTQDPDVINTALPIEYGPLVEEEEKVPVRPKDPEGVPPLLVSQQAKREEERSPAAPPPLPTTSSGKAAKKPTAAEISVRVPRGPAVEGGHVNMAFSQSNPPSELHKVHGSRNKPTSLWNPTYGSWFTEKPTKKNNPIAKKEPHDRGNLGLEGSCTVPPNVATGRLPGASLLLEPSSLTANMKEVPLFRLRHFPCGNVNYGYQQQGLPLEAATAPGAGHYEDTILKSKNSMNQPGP
Chain of Cyclin-dependent kinase 3 (Homo sapiens) (Q00526 whole entry, looked up): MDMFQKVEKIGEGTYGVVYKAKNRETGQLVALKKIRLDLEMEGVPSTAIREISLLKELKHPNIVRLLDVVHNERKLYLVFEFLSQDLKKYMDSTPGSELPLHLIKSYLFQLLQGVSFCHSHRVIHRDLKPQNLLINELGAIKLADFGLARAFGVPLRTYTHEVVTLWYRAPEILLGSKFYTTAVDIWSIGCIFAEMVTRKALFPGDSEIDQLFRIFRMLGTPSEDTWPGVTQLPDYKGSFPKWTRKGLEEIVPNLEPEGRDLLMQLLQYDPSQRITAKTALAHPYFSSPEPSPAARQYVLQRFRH
Chain of RAC-beta serine/threonine-protein kinase (Homo sapiens) (P31751 whole entry): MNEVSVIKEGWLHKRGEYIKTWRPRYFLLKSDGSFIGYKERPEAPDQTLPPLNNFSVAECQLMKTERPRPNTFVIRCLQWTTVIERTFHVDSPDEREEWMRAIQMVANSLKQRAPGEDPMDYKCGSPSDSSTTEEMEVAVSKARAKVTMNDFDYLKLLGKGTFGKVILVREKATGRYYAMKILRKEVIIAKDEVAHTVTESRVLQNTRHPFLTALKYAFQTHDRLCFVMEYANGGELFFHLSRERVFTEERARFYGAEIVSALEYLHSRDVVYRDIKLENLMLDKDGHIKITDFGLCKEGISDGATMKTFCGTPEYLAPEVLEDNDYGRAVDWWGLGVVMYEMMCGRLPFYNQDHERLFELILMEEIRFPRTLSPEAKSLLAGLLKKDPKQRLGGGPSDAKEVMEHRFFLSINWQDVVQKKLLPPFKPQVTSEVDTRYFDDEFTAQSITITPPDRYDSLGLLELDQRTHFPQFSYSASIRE
Chain of Serine/threonine-protein kinase SBK1 (Homo sapiens) (Q52WX2 whole entry): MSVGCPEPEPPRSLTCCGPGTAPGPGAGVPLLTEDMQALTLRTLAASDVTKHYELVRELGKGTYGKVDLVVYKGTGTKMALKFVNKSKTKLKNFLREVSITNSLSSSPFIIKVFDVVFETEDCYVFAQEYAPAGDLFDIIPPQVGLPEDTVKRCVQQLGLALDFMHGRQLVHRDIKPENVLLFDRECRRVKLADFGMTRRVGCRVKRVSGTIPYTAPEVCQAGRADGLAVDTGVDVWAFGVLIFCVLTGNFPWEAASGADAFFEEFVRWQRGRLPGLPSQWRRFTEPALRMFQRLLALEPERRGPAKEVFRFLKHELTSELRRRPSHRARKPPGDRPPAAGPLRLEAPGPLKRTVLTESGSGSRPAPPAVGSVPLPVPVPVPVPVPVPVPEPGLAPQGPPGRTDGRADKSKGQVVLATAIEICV
Chain of Mitogen-activated protein kinase kinase kinase 7 (Homo sapiens) (O43318 whole entry): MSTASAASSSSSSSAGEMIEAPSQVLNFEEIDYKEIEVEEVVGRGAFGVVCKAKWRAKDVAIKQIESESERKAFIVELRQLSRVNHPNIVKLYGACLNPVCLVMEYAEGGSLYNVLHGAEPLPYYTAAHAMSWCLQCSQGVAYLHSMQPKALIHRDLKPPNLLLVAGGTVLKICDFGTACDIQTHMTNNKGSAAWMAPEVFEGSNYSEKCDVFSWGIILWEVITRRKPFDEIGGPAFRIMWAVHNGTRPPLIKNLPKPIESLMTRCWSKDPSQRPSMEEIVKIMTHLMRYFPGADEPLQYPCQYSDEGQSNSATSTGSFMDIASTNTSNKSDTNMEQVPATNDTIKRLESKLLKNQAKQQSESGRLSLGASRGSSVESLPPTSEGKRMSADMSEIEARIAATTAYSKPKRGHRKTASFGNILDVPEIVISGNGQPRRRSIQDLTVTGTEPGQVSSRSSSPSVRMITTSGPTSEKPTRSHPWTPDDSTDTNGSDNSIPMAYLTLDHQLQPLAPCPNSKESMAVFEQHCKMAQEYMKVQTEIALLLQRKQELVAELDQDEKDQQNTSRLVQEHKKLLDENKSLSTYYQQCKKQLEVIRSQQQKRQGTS
Chain of Casein kinase I isoform alpha (Homo sapiens) (P48729 2-337 limits assumed): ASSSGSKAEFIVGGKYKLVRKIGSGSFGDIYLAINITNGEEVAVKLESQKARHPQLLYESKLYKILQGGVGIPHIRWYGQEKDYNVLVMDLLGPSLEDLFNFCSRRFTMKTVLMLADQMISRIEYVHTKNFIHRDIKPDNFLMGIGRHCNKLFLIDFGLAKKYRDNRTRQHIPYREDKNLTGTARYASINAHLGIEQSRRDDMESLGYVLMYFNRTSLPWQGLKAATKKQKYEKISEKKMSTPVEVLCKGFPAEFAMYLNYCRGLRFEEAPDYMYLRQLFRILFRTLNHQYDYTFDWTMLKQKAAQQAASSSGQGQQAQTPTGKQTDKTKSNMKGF

CS(=O)(=O)N1CCCC(NC(=O)[C@H](CCC2CCCCC2)NC(=O)c2ccc(CNc3ncnc4c3nnn4-c3ccccc3)cc2)C1 (stereo not given in full) [SR-301]
inactive: [1] 100% | [2] 100% | [3] 82% | [4] 100% | [5] 95% | [6] 100% | [7] 99% | [8] 100% | [9] 100% | [10] 78% | [11] 91% | [12] 91% | [13] 100% | [14] 80% | [15] 99% | [16] 100% | [17] 80% | [18] 91% | [19] 100% | [20] 83% | [21] 51% | [22] 100% | [23] 100% | [24] 83% | [25] 100% | [26] 100% | [27] 100% | [28] 100% | [29] 87% | [30] 100% | [31] 100% | [32] 63% | [33] 100% | [34] 100% | [35] 82% | [36] 88% | [37] 66% | [38] 87% | [39] 94% | [40] 100% | [41] 100% | [42] 96% | [43] 87% | [44] 100% | [45] 82%

CS(=O)(=O)N1CCCC(NC(=O)[C@H](CCC2CCCCC2)NC(=O)c2ccc(CNC(=O)c3cnc4ccccn34)cc2)C1 (stereo not given in full) [SR-302]
inactive: [1] 94% | [2] 76% | [3] 100% | [4] 100% | [5] 88% | [6] 100% | [7] 100% | [8] 100% | [9] 93% | [10] 55% | [11] 99% | [12] 100% | [13] 82% | [14] 92% | [15] 98% | [16] 100% | [17] 100% | [18] 99% | [19] 100% | [20] 81% | [21] 64% | [22] 96% | [23] 100% | [24] 100% | [25] 100% | [26] 76% | [27] 99% | [28] 100% | [29] 74% | [30] 100% | [31] 100% | [32] 89% | [33] 83% | [34] 69% | [35] 89% | [36] 100% | [37] 99% | [38] 97% | [39] 88% | [40] 100% | [41] 99% | [42] 100% | [43] 100% | [44] 100% | [45] 77%

Source: ChEMBL document CHEMBL4507324 (2021)
